Drawing on patent publication US20050197350A1, “Novel quinoline, tetrahydroquinazoline, and pyrimidine derivatives and methods of treatment related to the use thereof” (TAISHO PHARMACEUTICAL CO., LTD., priority 2003, published 2005), this text covers class for 34 compounds.

The first experiment concerns MCH receptors. Briefly: MCH receptor activity class (method not given). As to conditions: MCH receptor activity class 1-3 (percent of control at 10^-7 M or IC50).
For the compound `CCc1cccc(C)c1NC(=O)NC[C@H]1CC[C@@H](Nc2nccc(N(C)C)n2)CC1` [compound 2408, N-[(cis-4-{[4-(dimethylamino)pyrimidin-2-yl]amino}cyclohexyl)methyl]-N′-(2-ethyl-6-methylphenyl)urea], the class is on record as 1 (Class 1: The value of percent of control at 10^−7 M was less than 40% or the value of IC50 was less than 50 nM.).
With `CN(C)c1cc(N[C@H]2CC[C@@H](NC(=S)Nc3ccc4c(c3)OCCO4)CC2)nc2ccccc12` [compound 2304], the class is 3 (Class 3 The value of percent of control at 10^−7 M was more than 60% or the value of IC50 was more than 200 nM.).

Still in this experiment, the particulars now being: MCH receptor; class by percent of control at 10^-7 M or IC50.
As to `COc1cc(NC(=S)N[C@H]2CC[C@@H](Nc3nc4c(c(N(C)C)n3)CCCC4)CC2)cc(OC)c1` [compound 2006], the class is listed as 3 (Class 3 The value of percent of control at 10^−7 M was more than 60% or the value of IC50 was more than 200 nM.).
With `CCSc1ncccc1C(=O)NC[C@H]1CC[C@@H](Nc2cc(N(C)C)c3ccccc3n2)CC1` [compound 163], the class was 3 (Class 3 The value of percent of control at 10^−7 M was more than 60% or the value of IC50 was more than 200 nM.).
Same read-out and setting: to `Cc1ccc(NC(=S)N[C@H]2CC[C@@H](Nc3nc4c(c(N(C)C)n3)CCCC4)CC2)cc1` [compound 1959] belongs 3 (Class 3 The value of percent of control at 10^−7 M was more than 60% or the value of IC50 was more than 200 nM.); to `CN(C)c1cc(N[C@H]2CC[C@@H](CNC(=O)c3cc(C(C)(C)C)nn3C)CC2)nc2ccccc12` [compound 213], 3 (Class 3 The value of percent of control at 10^−7 M was more than 60% or the value of IC50 was more than 200 nM.).

The same experiment, now with this note: activity class 1-3: percent of control at 10^-7 M or IC50.
Turning to `CN(C)c1nc(N[C@H]2CC[C@@H](CNC(=O)Oc3ccccc3)CC2)nc2c1CCCC2` [compound 1612], the class is given as 3 (Class 3 The value of percent of control at 10^−7 M was more than 60% or the value of IC50 was more than 200 nM.).
Still for that read-out and setting: then `CN(C)c1nc(N[C@H]2CC[C@@H](NC(=O)Oc3ccc4ccccc4c3)CC2)nc2c1CCCC2` [compound 1589], with 3 (Class 3 The value of percent of control at 10^−7 M was more than 60% or the value of IC50 was more than 200 nM.); and `COCCOC(=O)N[C@H]1CC[C@@H](Nc2nc3c(c(N(C)C)n2)CCCC3)CC1` [compound 1585], with 3 (Class 3 The value of percent of control at 10^−7 M was more than 60% or the value of IC50 was more than 200 nM.); and `Cc1c(C)c(C)c(CNC2CCC(Nc3nccc(N(C)C)n3)CC2)c(C)c1C` (stereo not shown) [compound 1519], with 3 (Class 3 The value of percent of control at 10^−7 M was more than 60% or the value of IC50 was more than 200 nM.).
Consider `CN(C)c1ccnc(N[C@H]2CC[C@@H](CNC(=O)Oc3cccc(C(F)(F)F)c3)CC2)n1` [compound 1642], for which the class is listed as 3 (Class 3 The value of percent of control at 10^−7 M was more than 60% or the value of IC50 was more than 200 nM.).
Same read-out and setting: to `CN(C)c1cc(N[C@H]2CC[C@@H](CNC(=O)Oc3ccccc3)CC2)nc2ccccc12` [compound 1572] belongs 3 (Class 3 The value of percent of control at 10^−7 M was more than 60% or the value of IC50 was more than 200 nM.).

The experiment is the same for the next values; noted with them: activity class per percent of control at 10^-7 M or IC50.
Take `CN(C)c1nc(N[C@H]2CC[C@@H](NC(=O)c3ccc4ncsc4c3)CC2)nc2c1CCCC2` [compound 1054]: the class is 3 (Class 3 The value of percent of control at 10^−7 M was more than 60% or the value of IC50 was more than 200 nM.).
Same read-out and setting: to `CCOc1ccccc1CNC[C@H]1CC[C@@H](Nc2cc(N(C)C)c3ccccc3n2)CC1` [compound 1123] belongs 2 (Class 2: The value of percent of control at 10^−7 M was from 40% to 60% or the value of IC′50 was from 50 nM to 200 nM.).
On the same count and under the same terms, then `COc1cccc(CN[C@H]2CC[C@@H](Nc3cc(N(C)C)c4ccccc4n3)CC2)c1` [compound 1104], with 3 (Class 3 The value of percent of control at 10^−7 M was more than 60% or the value of IC50 was more than 200 nM.).

The experiment is the same for the next values; noted with them: class by percent of control at 10^-7 M or IC50.
Consider `Cc1cc(Cl)ccc1NC(=O)N[C@H]1CC[C@@H](Nc2cc(N(C)C)c3ccccc3n2)CC1` [compound 2154], for which the class was 3 (Class 3 The value of percent of control at 10^−7 M was more than 60% or the value of IC50 was more than 200 nM.).
Still for that read-out and setting: to `CN(C)c1nc(N[C@H]2CC[C@@H](CNCc3cccc(Cl)c3)CC2)nc2c1CCCC2` [compound 1390] belongs 3 (Class 3 The value of percent of control at 10^−7 M was more than 60% or the value of IC50 was more than 200 nM.); to `CN(C)c1cc(N[C@H]2CC[C@@H](CNC(=O)Cc3ccccc3OC(F)(F)F)CC2)nc2ccccc12` [compound 808], 3 (Class 3 The value of percent of control at 10^−7 M was more than 60% or the value of IC50 was more than 200 nM.).
The same measure, in the same setting: then `CN(C)c1ccnc(N[C@H]2CC[C@@H](NC(=O)Nc3ccccc3I)CC2)n1` [compound 2198], with 3 (Class 3 The value of percent of control at 10^−7 M was more than 60% or the value of IC50 was more than 200 nM.).
The same measure, in the same setting: to `CN(C)c1cc(N[C@H]2CC[C@@H](NC(=O)c3ccc(-c4ccc(Cl)cc4[N+](=O)[O-])o3)CC2)nc2ccccc12` [compound 676, 5-(4-chloro-2-nitrophenyl)-N-(cis-4-{[4-(dimethylamino)quinolin-2-yl]amino}cyclohexyl)-2-furamide] belongs 2 (Class 2: The value of percent of control at 10^−7 M was from 40% to 60% or the value of IC′50 was from 50 nM to 200 nM.).
Take “(3-{(1S)-2-[(cis-4-([4-(dimethylamino)-5,6,7,8-tetrahydroquinazolin-2-yl]amino}cyclohexyl)amino]-1-methylethyl}phenyl)(phenyl)methanol [compound 1496]”: the class is listed as 3 (Class 3 The value of percent of control at 10^−7 M was more than 60% or the value of IC50 was more than 200 nM.).
Same read-out and setting: to `Cc1cc(Br)cc(C)c1NC(=O)N[C@H]1CC[C@@H](Nc2nccc(N(C)C)n2)CC1` [compound 2210, N-(4-bromo-2,6-dimethylphenyl)-N′-(cis-4-{[4-(dimethylamino)pyrimidin-2-yl]amino}cyclohexyl)urea] belongs 1 (Class 1: The value of percent of control at 10^−7 M was less than 40% or the value of IC50 was less than 50 nM.); to `CSc1ccc(Cl)c(C(=O)N[C@H]2CC[C@@H](Nc3cc(N(C)C)c4ccccc4n3)CC2)c1` [compound 781], 3 (Class 3 The value of percent of control at 10^−7 M was more than 60% or the value of IC50 was more than 200 nM.); to `CN(C)c1ccnc(N[C@H]2CC[C@@H](CNCc3ccccc3SC(F)(F)F)CC2)n1` [compound 1286], 3 (Class 3 The value of percent of control at 10^−7 M was more than 60% or the value of IC50 was more than 200 nM.).
Still for that read-out and setting: to `C[C@@H](NC(=S)N[C@H]1CC[C@@H](Nc2nc3c(c(N(C)C)n2)CCCC3)CC1)c1ccccc1` [compound 1778] belongs 3 (Class 3 The value of percent of control at 10^−7 M was more than 60% or the value of IC50 was more than 200 nM.); to `Cc1ccc(C(=O)NC[C@H]2CC[C@@H](Nc3nccc(N(C)C)n3)CC2)cc1[N+](=O)[O-]` [compound 388], 3 (Class 3 The value of percent of control at 10^−7 M was more than 60% or the value of IC50 was more than 200 nM.).
As for `Cc1ccccc1NC(=O)N[C@H]1CC[C@@H](Nc2nccc(N(C)C)n2)CC1` [compound 2188], the class is listed as 3 (Class 3 The value of percent of control at 10^−7 M was more than 60% or the value of IC50 was more than 200 nM.).

The experiment is the same for the next values; noted with them: class by percent of control at 10^−7 M or IC50.
With `Cc1cnc(N[C@H]2CC[C@@H](CNC(=O)c3ccc(OC(F)(F)F)cc3)CC2)nc1N(C)C` [compound 2700, N-[(cis-4-{[4-(dimethylamino)-5-methylpyrimidin-2-yl]amino}cyclohexyl)methyl]-4-(trifluoromethoxy)benzamide], the class was 2 (Class 2: The value of percent of control at 10^−7 M was from 40% to 60% or the value of IC′50 was from 50 nM to 200 nM.).
On the same count and under the same terms, to `Cc1cnc(N[C@H]2CC[C@@H](NC(=O)COc3cccc(C(F)(F)F)c3)CC2)nc1N(C)C` [compound 2878, N-(cis-4-{[4-(dimethylamino)-5-methylpyrimidin-2-yl]amino}cyclohexyl)-2-[3-(trifluoromethyl)phenoxy]acetamide] belongs 1 (Class 1: The value of percent of control at 10^−7 M was less than 40% or the value of IC50 was less than 50 nM.); to `Cc1nc(N[C@H]2CC[C@@H](NC(=O)c3ccc(OC(F)(F)F)cc3)CC2)nc(N(C)C)c1C` [compound 2843, N-(cis-4-{[4-(dimethylamino)-5,6-dimethylpyrimidin-2-yl]amino}cyclohexyl)-4-(trifluoromethoxy)benzamide], 2 (Class 2: The value of percent of control at 10^−7 M was from 40% to 60% or the value of IC′50 was from 50 nM to 200 nM.); to `Cc1cc(N(C)C)nc(N[C@H]2CC[C@@H](CNC(=O)c3ccccc3)CC2)n1` [compound 2751, N-[(cis-4-{[4-(dimethylamino)-6-methylpyrimidin-2-yl]amino}cyclohexyl)methyl]benzamide], 3 (Class 3 The value of percent of control at 10^−7 M was more than 60% or the value of IC50 was more than 200 nM.).
With `Cc1cc(N(C)C)nc(N[C@H]2CC[C@@H](NC(=O)c3ccccc3)CC2)n1` [compound 2951, N-(cis-4-{[4-(dimethylamino)-6-methylpyrimidin-2-yl]amino}cyclohexyl)benzamide], the class is listed as 3 (Class 3 The value of percent of control at 10^−7 M was more than 60% or the value of IC50 was more than 200 nM.).
On to `Cc1cnc(NC[C@H]2CC[C@@H](NC(=O)c3ccccc3)CC2)nc1N(C)C` [compound 2712, N-[cis-4-({[4-(dimethylamino)-5-methylpyrimidin-2-yl]amino}methyl)cyclohexyl]benzamide], for which the class was 3 (Class 3 The value of percent of control at 10^−7 M was more than 60% or the value of IC50 was more than 200 nM.).
As for `Cc1cnc(N[C@H]2CC[C@@H](NC(=O)N(C)c3ccc(F)cc3)CC2)nc1N(C)C` [compound 3026, N′-(cis-4-{[4-(dimethylamino)-5-methylpyrimidin-2-yl]amino}cyclohexyl)-N-(4-fluorophenyl)-N-methylurea], the class is on record as 1 (Class 1: The value of percent of control at 10^−7 M was less than 40% or the value of IC50 was less than 50 nM.).
